Source: patent US20100216706A1, “Ghrelin Protects Substantia Nigra Dopamine Neurons” (priority 2007, published 2010)
No end group written: not given here. *: point of attachment. Octanoyl = CCCCCCCC(=O)*

How the values were obtained:
TH neurons in the SNpc = assay: MPTP-induced TH cell loss in the SNpc (stereology, optical fractionator); type: in vivo, mice
Text: (§1) Control animals were given saline. Animals were sacrificed and perfused 7 days later and processed for immunohistochemistry or HPLC for dopamine (DA) and metabolites. n=8-10 for ghrelin wt and ko mice; n=6 for GHSR wt/wt, homo/wt and homo/TG.
TH cell quantification: Free floating sections were stained with TH (1:5000, Chemicon International) and visualized with DAB using standard procedures.
Unbiased stereology methods were used to quantify TH immunoreactive cells in the SNpc. Cells were visualized by a Zeiss microscope and relayed via a MicroFibre digital camera (www(dot)optronics(dot)com) to a computer where they were counted using the optical fractionator with the sophisticated Stereolnvestigator software (MicroBrightField, Williston, Vt., USA). Every fourth section was collected through the SNpc, and TH cells were counted in grids randomly positioned by the software in the outlined counting area through all optical planes, thus creating a 3 dimensional counting area.
(§2) The observation that ghrelin promotes SNpc DA neuronal function, mitochondrial respiration and number raises the possibility that ghrelin may protect nigrostriatal dopaminergic system during increased cellular stress. […] In brief, mice were treated with daily IP injections of exogenous ghrelin (10 nmols) or saline for 14 days. Mice were injected immediately before the dark phase, and food was removed overnight since calorie intake and postprandial increases in glucose and insulin can suppress the action of ghrelin (Cummings et al., 2006, Physiol Behav 89: 71-84). Both ghrelin and saline treated mice were given 3 grams of standard chow the following morning at 9 am. […] After the subsequent 7 days of treatment (saline or ghrelin), TH immunoreactive neurons were counted blind by two independent researchers using the non-biased optical fractionator on the stereology program, Stereoinvestigator.

striatal dopamine [1] = assay: Striatal DA concentration after ghrelin injection (HPLC); type: in vivo, mice
Method: (§3) The samples were subsequently thawed in 0.4 ml of chilled 0.1 M perchloric acid and sonicated. Aliquots were taken for protein quantification using a spectrophotometric assay. Other aliquots were centrifuged, and DA levels were measured in supernatants by high pressure liquid chromatography (HPLC) with electrochemical detection. Concentrations of DA and metabolites were expressed as ng/mg protein (mean±SEM).
To further examine the effect of ghrelin on the nigrostriatal system, striatal DA concentration after ghrelin injection in wild-type mice was measured using HPLC.

[2] = system: SNpc DA neurons mitochondria; assay: Mitochondria number in SNpc DA perikarya (electron microscopy); type: in vivo, mice
Text: Mitochondria number: Animals were perfused and their brains were processed for TH immunolabeling for electron microscopic examination. Ultrathin sections were cut on a Leica ultra microtome, collected on Formvar-coated single-slot grids and analyzed with a Tecnai 12 Biotwin (FEI Company) electron microscope. Mitochondria were counted blindly from randomly selected sections, and Scion Image was used to normalize cytoplasmic area so that mitochondrial number per cell is expressed in square micrometers.
Given that ghrelin induces mitochondrial respiration as described above, an experiment was performed to test whether ghrelin could also alter mitochondrial number in the SNpc DA perikarya. […]
Therefore, an experiment was performed to test whether ghrelin increases mitochondrial number in the SNpc dopamine neurons. […] In line with this, UCP2 ko mice show reduced mitochondrial number in the SNpc dopamine neurons, which predisposes them to environmental toxins (Andrews et al., 2005, J Neurosci 25:184-191). Furthermore, mitochondrial dysfunction lies at the very heart of Parkinson's disease (Lin et al., 2006, Nature 443:787-795).

SNpc DA neurons = assay: Whole-cell patch clamp, action potential firing of SNpc DA neurons in brain slices; type: cell-based, mice and rats
Method: Patch clamp recordings from VTA dopamine neurons: Brain slices (300 μm) containing the substantia nigra pars compacta (SNpc), were cut on a vibratome from 2-3 week old male and female mice (n=9) and rats (n=5). Briefly, animals were anesthetized with Nembutal (80 milligram/kilogram body weight) and then decapitated. The brains were rapidly removed and immersed in cold (4° C.) oxygenated bath solution (containing (mM): NaCl 150; KCl 2.5; CaCl2 2; MgCl2 2; Hepes 10; and glucose 10, pH 7.3 with NaOH). After being trimmed to contain only the SNpc, slices were transferred to a recording chamber where they were constantly perfused with bath solution at 2 milliliter/minute. Dopamine neurons in the SNpc were identified by presence of a large Ih current (>100 pA) evoked by hyperpolarizing voltage steps from −50 to −120 mV for 2 seconds. This approach identifies dopaminergic cells with >90% accuracy (Abizaid et al., 2006, J Clin Invest. 116(12):3229-39. Epub 2006 Oct. 19). In brain slices, whole-cell current clamp was used to observe spontaneous action potentials. Slices were maintained at 33° C. and perfused continuously with ASCF (bubbled with 5% CO2 and 95% O2) containing (in mM): NaCl, 124; KCl, 3; CaCl2, 2; MgCl2, 2; NaH2PO4, 1.23; NaHCO3, 26; glucose, 10, pH 7.4 with NaOH. Ghrelin was applied to the recording chamber via bath application. The pipette solution contained (mM): gluconic acid 140; CaCl2, MgCl2 2; EGTA 1; HEPES 10; Mg-ATP; 4, and Na2-GTP; 0.5, pH 7.3 with KOH
To address this question, an experiment using whole-cell patch clamp electrophysiology was performed to investigate whether ghrelin directly activates SNpc DA neurons. DA neurons (n=11) in the SNpc were identified based on their characteristic Ih currents (Johnson et al., 1992, J Neurosci 12: 483-8). Spontaneous action potentials were recorded under current clamp for at least 10 minutes of stable recording. Ghrelin (1-3 μmol) was applied via bath application.

striatal dopamine [3] = assay: Striatal dopamine after MPTP (HPLC); type: in vivo, mice; conditions: ghrelin 14 days
Method: as §1, §3, §2

ghrelin (GSS(Octanoyl)FLSPEHQRVQQRKESKKPPAKLQPR; listed as Homo sapiens) [28 amino acid acyl-peptide esterified with octanoic acid on Ser3; endogenous ligand of GHSR]
Total TH neurons in SNpc, ghr/MPTP (TH neurons in the SNpc; ghrelin 10 nmols IP daily 14 days, MPTP 30 mg/kg IP on day 7): 7836±285
Total TH neurons in SNpc, ghr/sal (TH neurons in the SNpc; ghrelin 10 nmols IP daily 14 days, saline on day 7, sal/sal 11283±342): 11616±318
Dopamine cell loss compared to control mice, ghrelin treatment (TH neurons in the SNpc; ghrelin 14 days, MPTP on day 7): 33%
SNpc volume, ghr/MPTP (TH neurons in the SNpc; ghrelin 14 days, MPTP on day 7): not significantly different
SNpc volume, ghr/sal vs sal/sal (TH neurons in the SNpc; ghrelin 14 days, saline on day 7): not significantly different
Effect on DA concentration in ghsr−/− mice (striatal dopamine [1]; ghsr−/− mice): no effect
DA concentration in ventral striata (striatal dopamine [1]; wild-type mice after ghrelin injection): 126.5±7.26 ng/mg protein
DA concentration in dorsal striatum (striatal dopamine [1]; wild-type mice after ghrelin injection, saline 119.4±9.6): 153±4.6 ng/mg protein
Mitochondrial number in DA perikarya of the SNpc ([2]; mice, three hours after ghrelin injection, saline 0.46±0.03): 0.62±0.03 μm^2
Mitochondrial number in SNpc dopamine neurons, UCP2 ko mice ([2]; two hours after ghrelin injection, saline 0.45±0.03): 0.39±0.03 μm^2
Mitochondrial number in SNpc dopamine neurons, UCP2 wt mice ([2]; two hours after ghrelin injection, saline 0.46±0.03): 0.62±0.03 μm^2
Action potential frequency (SNpc DA neurons; ghrelin 1-3 μmol bath application, control 100%): 131.9%±17.5
Identified DA neurons that responded (SNpc DA neurons; ghrelin bath application): 10 of 11
Action potential frequency after washout (SNpc DA neurons; washout of ghrelin, control 100%): 101.9%±4.6
Loss of striatal dopamine vs controls, ghr/MPTP (striatal dopamine [3]; MPTP on day 7): 45%
Striatal dopamine concentration, ghr/MPTP (striatal dopamine [3]; MPTP on day 7): 78.4±8.8 ng/mg protein
Striatal dopamine concentration, ghr/sal (striatal dopamine [3]; saline on day 7, sal/sal 147.4±10.2): 141.8±7.5 ng/mg protein
